For experiment [1], the system named is mixture of 26 isogenic NL4-3 protease mutant viruses. Description: Selection for resistance in CEMx174 culture with escalating inhibitor, start mixture of 26 isogenic single mutants, Primer ID deep sequencing. Format: cell-based, HIV-1. How it is done: . The selection experiments were performed under two separate starting conditions: first when the starting virus was generated from the NL4-3 clone (this clone closely approximates the clade B consensus for the protease amino acid sequence and will be referred to as ‘wild type’), then again when the starting virus was a mixture of 26 isogenic viruses each with a single mutation associated with drug resistance in the NL4-3 background. […] The initial inhibitor concentration started at low nanomolar concentrations and increased by a factor of 1.5 with each subsequent viral passage (the inhibitor concentration was increased only after the virus spread efficiently through the culture). […] For technical reasons, only five of the selections starting with the mixture of mutants reached an inhibitor concentration as high as 400 nM and are reported here (Figure 2—figure supplement 3). […]
CEMx174 cells were maintained in RPMI 1640 medium with 10% fetal calf serum and penicillin-streptomycin. […] Cell phenotypes were monitored for their ability to generate virus after transfection (293Ts), support viral replication (CEMx174), or report viral infection (TZM-bl). […]

The next experiment has as its target T1, wild-type NL4-3 protease (Human immunodeficiency virus type 1 group M subtype B, UniProt P12497, Q495K).
T1 construct: the gene encoding the desired HIV-1 protease was subcloned into the heat-inducible pXC35 expression vector; made in house
Details: method as in Lockbaum et al. (ACS Infect Dis. 2019 Feb 8; 5 (2): 316–325). As to conditions: previously reported, ref Lockbaum et al. (ACS Infect Dis. 2019 Feb 8, 5 (2): 316–325), read-out: Ki WT; cited from earlier work.

The next experiment deals with T2, I84V mutant protease (Human immunodeficiency virus type 1 group M subtype B, UniProt P12497, I572V/Q495K).
T2 construct: the gene encoding the desired HIV-1 protease was subcloned into the heat-inducible pXC35 expression vector; made in house
Details: method as in Lockbaum et al. (ACS Infect Dis. 2019 Feb 8; 5 (2): 316–325). The conditions noted are these: I84V drug-resistant protease variant; previously reported; ref Lockbaum et al. (ACS Infect Dis. 2019 Feb 8; 5 (2): 316–325); cited from earlier work.

In experiment [2] the target is T3, I50V/A71V mutant protease (Human immunodeficiency virus type 1 group M subtype B, UniProt P12497, A559V/I538V/Q495K).
T3 construct: the gene encoding the desired HIV-1 protease was subcloned into the heat-inducible pXC35 expression vector; made in house
Details: method as in Lockbaum et al. (ACS Infect Dis. 2019 Feb 8; 5 (2): 316–325). As to conditions: I50V/A71V drug-resistant protease variant; previously reported; ref Lockbaum et al. (ACS Infect Dis. 2019 Feb 8; 5 (2): 316–325); cited from earlier work.

Turning to `CCC(CC)CN(C[C@@H](O)[C@H](Cc1ccccc1)NC(=O)O[C@H]1CO[C@H]2OCC[C@H]21)S(=O)(=O)c1ccc(OC)cc1` [UMASS-7], the “Abundance of variant at the last time point” value in experiment [1] (variant 10F/46I/50V/63P/85V, passage 58, [PI] 400 nM) is reported as 21.0%.

Consider `CCC(CC)CN(C[C@@H](O)[C@H](Cc1ccccc1)NC(=O)O[C@H]1CO[C@H]2OCC[C@H]21)S(=O)(=O)c1ccc(N)cc1` [UMASS-6], for which the “Abundance of variant at the last time point” value in experiment [1] (variant 13V/16E/32I/33F/45I/46I/54L/71V/76V/82F/84V, passage 53, [PI] 5000 nM) is listed as 62.8%. Also, the Ki – broadly, the equilibrium dissociation constant of an inhibitor or competing ligand from its target – on wild-type NL4-3 protease is under 0.005 nM; at I84V mutant protease it was 0.0128 ± 0.0031 nM; in experiment [2], 0.1 ± 0.0099 nM.

The values are drawn from publication PMC10065791 (eLife, 2023).
